Assays:
human hepatocytes = experiment: Metabolic stability in human hepatocytes; format: in vitro ADME
Description: (§1) Compound solubilization: Stock solutions were made in DMSO, and working solutions in William medium containing 1/10 rat plasma or 1/4 human plasma.
(§2) Metabolic stability determination: Compounds were incubated at 10^−7 M with isolated hepatocytes (6E+5 cells/ml for rat hepatocytes and 4E+5 cells/ml for human hepatocytes) at 37° C. in plasma from the same species diluted in Wiliams medium (1/10 dilution for rat and 1/4 dilution for human). Sampling times were performed at 0, 10, 20, 30, 60 and 120 min and enzymatic reaction stopped with methanol (v/v). Proteins were precipitated by centrifugation and the supernatant was analyzed by LC/MS/MS. Clint expressed as ml/min/g protein were calculated as for hepatic microsomes using a ratio of 0.134 mg protein/ml for 4E+5 cells/ml for human and 0.201 mg protein/ml for 6E+5 cells/ml for rat. The presence of the reference drug and the potential metabolite was checked by LC/MS/MS during the assay in each sample.

rat hepatocytes = experiment: Metabolic stability in rat hepatocytes; format: in vitro ADME
Description: as §1, §2

WT mice = experiment: Voluntary wheel activity and EDL specific force in WT (C57BL/6) mice; format: in vivo, mouse; conditions: 50 mg/kg/d
Description: Voluntary activity on wheel, body weight, and average water consumption were measured in the first 3 weeks. Specific muscle force was measured after 4 weeks of treatment, at the end of the study.
Distance traveled (Km/day) over a 24 hr period was analyzed as an index of improved functional activity (see, DMD_M.2.1.002 SOP at http://www.treat-nmd.eu/). At the conclusion of the study, Extensor digitorum longus (EDL) muscle was isolated for muscle force analysis as further described hereinbelow. Blood was collected from each mouse by retro-orbital bleeds at the end of the study (after end of dark cycle—about 7 AM) to assess drug plasma concentrations. Experiments were blinded.
At the end of the study, EDL muscle was dissected from hind limbs for isometric force analysis using the 407A Muscle Test System from Aurora Scientific (Aurora, Ontario, Canada). […] Force-frequency relationships were determined by triggering contraction using incremental stimulation frequencies (5-250 Hz for 200 ms at suprathreshold voltage). […] At the end of the force measurement, the length (Lo) of the EDL muscle while sutured in the Aurora system was measured excluding the tendons. […] The cross-sectional area (mm^2) of the EDL muscle was calculated by dividing the EDL muscle weight by the EDL muscle length and the mammalian muscle density constant of […] (Yamada, T., et al. Arthritis and rheumatism 60:3280-3289). […]

For `COc1ccc2c(c1)CN(Cc1ccc(C(=O)O)cc1)CCS2` [Compound 1, 4-((7-Methoxy-2,3-dihydrobenzo[f][1,4]thiazepin-4(5H)-yl)methyl)benzoic acid], the MF human % (human hepatocytes) was 100%, the Clint (human hepatocytes; 4.00E+05 cells/ml, 10^-7 M) was 0 ml/min/gprot and the MF rat % (rat hepatocytes) was 90%. For the same molecule, the Clint (rat hepatocytes; 6.00E+05 cells/ml, 10^-7 M) was 5 ml/min/gprot, the “travel distance on voluntary wheel” value (WT mice) was “No effect” and the “specific muscle force (EDL)” value (WT mice; 4 weeks) was “No effect”.

From patent US20130281512A1, “AGENTS FOR TREATING DISORDERS INVOLVING MODULATION OF RYANODINE RECEPTORS” (LES LABORATOIRES SERVIER, priority 2012, published 2013)
